# Results: patent publication US7276531B2, “G-lactam derivatives as prostaglandin agonists” (Applied Research Systems ARS Holding N.V., priority 2003, dated 2007)
# Columns and labels:
# LPS-induced TNFα release = test: In vivo inhibition of LPS-induced TNFα release in mice; conditions: LPS 0.3 mg/kg i.p.
# Method: The anti-inflammatory activity of compounds of the invention may be assessed after a LPS challenge using the following protocol:
# Eight weeks old C3H/H mice (IFFA-CREDO, L'arbresle, France) receive an oral treatment with compounds of the invention 6 different doses (0.001, 0.01, 0.1, 1 or 3 and 10 mg/kg in 0.5% CMC/0.25% tween-20). Six mice are used by group. Fifteen minutes later, endotoxins (O111:B4 Sigma, 0.3 mg/kg) are intraperitoneally injected. Heparinized whole blood is collected by decapitation. TNFα level is determined in plasma by ELISA (R & D Systems, Abdingdon, UK). Control animals receive 0.5% CMC/0.25% tween-20 (10 ml/kg) as vehicle. Data obtained from experiments are expressed as the mean±SEM and analysed using one-way analysis of variance (ANOVA) followed by Dunnett's t-test.
# [1] = tested on: aspirin-induced gastric ulceration; test: In vivo inhibition of aspirin-induced gastric ulceration; conditions: rats
# Description: The activity of compounds of the invention as protective agents against gastric ulceration can be assayed as follows and as described in Guth et al., 1979. […]
# Four hours later, animals are sacrificed and gastric ulceration is scored for degree of hemorrhage and severity of ulcerative lesions as follows: 0=no hyperemia or bleeding, 1=hyperaemia, 2=slight spot bleeding, 3=hyperemia plus slight spot bleeding, 4=hyperemia plus spot bleeding within entire stomach. Reduction of concurrent control score values by 50 percent or more (≧50%) is considered significant.
smiles,measurement,setting,value
"CCCC/C(C)=C/C=C\[C@H]1CCC(=O)N1CCc1ccc(C(=O)O)cc1 [Example 3, 4-(2-{(2R)-2-[(1Z,3E)-4-methylocta-1,3-dienyl]-5-oxopyrrolidin-1-yl}ethyl)benzoic acid]",% of Inhibition of TNF Release Mean ± SEM,LPS-induced TNFα release; oral dose 0.001 mg/kg,41 ± 5%
same,% of Inhibition of TNF Release Mean ± SEM,LPS-induced TNFα release; oral dose 0.01 mg/kg,43 ± 7%
same,% of Inhibition of TNF Release Mean ± SEM,LPS-induced TNFα release; oral dose 0.1 mg/kg,63 ± 3%
same,% of Inhibition of TNF Release Mean ± SEM,LPS-induced TNFα release; oral dose 1 mg/kg,68 ± 3%
same,% of Inhibition of TNF Release Mean ± SEM,LPS-induced TNFα release; oral dose 10 mg/kg,83 ± 3%
same,percentage of protection (gastric ulceration),[1]; 10 mg/kg administered orally,65%
same,Ulceration scores,[1]; aspirin 150 mg/kg oral gavage,decreased in a dose-dependent manner
